Test results: a melting point compilation (Tetko et al.; mined from patent text by program, amines drawn as free bases though some values may be those of a salt)

**Q.** Which melting point does the source give for Cc1c(Br)ccc(C=NO)c1Cl here?
**A.** 77 to 78 °C

**Q.** With COC(=O)c1cc(C(=O)NCCCO)c2cc(Cc3ccc(F)cc3)cnc2c1O as the compound, how does the melting point read?
**A.** 167 to 168 °C

**Q.** With Cc1c(C)c(N2CCN(c3nc(-c4ccccc4)ns3)CC2)c(C)c2c1OC(C)(C)C2 as the compound, how does the melting point read?
**A.** 204 to 205 °C

**Q.** With CCOc1nn(-c2ccc(C(F)(F)F)cn2)cc1CCOc1ccccc1CC(=O)O as the compound, how does the melting point read?
**A.** 134 to 135 °C

**Q.** With O=S(=O)(NCCN1CCOCC1)c1ccc(-c2n[nH]c3c2Cc2ccccc2-3)cc1 as the compound, how does the melting point read?
**A.** 218 to 220 °C

**Q.** Which melting point does the source give for N#Cc1cnc2sc(-c3ccccc3)cc2c1Nc1cccc2cc[nH]c12 here?
**A.** > 245 °C

**Q.** For Oc1ccc2cc(-c3noc4cc(O)ccc34)ccc2c1, which melting point is on record?
**A.** 280 to 282 °C

**Q.** Which melting point does the source give for C[C@H](NC(=O)OCc1ccccc1)C(=O)N[C@@H](Cc1ccccc1)C(=O)OCc1ccccc1 here?
**A.** 118 to 119 °C

**Q.** For CCc1ccc(Nc2nnc(Cc3ccnc(OC)c3)c3ccccc23)cc1Br, which melting point is on record?
**A.** 133 to 135 °C

**Q.** For CN(C)CCCNc1c(-c2ccccc2)c(=O)[nH]c2cc(Cl)ccc12, which melting point is on record?
**A.** 177 to 179 °C

**Q.** Which melting point does the source give for OC1(c2ccncc2)CCc2ccccc21 (configuration not stated) here?
**A.** 151 °C

**Q.** For CCOC(=O)Cc1ccc(CC2(CNS(=O)(=O)c3ccc(Cl)cc3)CCCC2)cc1, which melting point is on record?
**A.** 117 to 119 °C

**Q.** With O=C(c1ccccc1CBr)c1cc(Cl)ccc1CBr as the compound, how does the melting point read?
**A.** 152 to 153 °C

**Q.** For COc1c(Nc2ncc(Cl)c(N[C@H]3[C@@H](C(N)=O)[C@@H]4C=C[C@H]3C4)n2)ccc2c1CC(N1CCOCC1)CCC2 (some centres not stated), which melting point is on record?
**A.** 139 to 148 °C

**Q.** With O=C1CN(c2ccc(Cl)cc2)C(=S)N1c1ccc(Cc2ccccc2)cc1 as the compound, how does the melting point read?
**A.** 153 °C

**Q.** For CC(=O)NCC[C@@H]1CCc2ccc3nn(C)c(Br)c3c21, which melting point is on record?
**A.** 167 to 169 °C

**Q.** For COc1ccc2ccc3ccc(C=O)c4ccc1c2c34, which melting point is on record?
**A.** 135 to 136 °C

**Q.** With CCC(=O)Nc1cc(-c2cccnc2)nc(-c2ccco2)n1 as the compound, how does the melting point read?
**A.** 252 to 253 °C

**Q.** For O=C1NC(=O)C(Cc2ccc(OCCn3cc(C(c4ccccc4)(c4ccccc4)c4ccccc4)c4ccccc43)cc2)S1 (configuration not stated), which melting point is on record?
**A.** 66.6 to 70 °C

**Q.** For COC(=O)c1ccc(-c2ccc3nnn(Cc4cc5cccnc5cc4F)c3n2)cc1F, which melting point is on record?
**A.** 213 to 215 °C

**Q.** For CCCC(Cc1ccc(OCCN2CCCCCC2)cc1)(C(=O)O)S(=O)(=O)c1ccc(OC)cc1 (configuration not stated), which melting point is on record?
**A.** 55 °C

**Q.** Which melting point does the source give for C#CCN(C)CC1=Cc2ccccc2Oc2ccccc21 here?
**A.** 66 to 67 °C

**Q.** Which melting point does the source give for COc1ccc(C2=NN(Cc3ccccn3)C(=O)[C@H]3CC=CC[C@@H]23)cc1OC (relative stereo) here?
**A.** 146 to 147 °C

**Q.** With Cc1cc(OCc2cnc(-c3ccc(OC(F)(F)F)cc3)nc2C(F)(F)F)ccc1OC(C)(C)C(=O)O as the compound, how does the melting point read?
**A.** 154 °C

**Q.** For CSC1CC(=O)N1CC(=O)NCc1ccccc1 (configuration not stated), which melting point is on record?
**A.** 84 to 87 °C

**Q.** With COc1c(-c2ccc(S(C)(=O)=O)cc2)cnn(-c2cccc(Cl)c2)c1=O as the compound, how does the melting point read?
**A.** 112 to 114 °C

**Q.** With CCc1nc2csc(C(=S)OC)c2[nH]1 as the compound, how does the melting point read?
**A.** 140 to 142 °C

**Q.** Which melting point does the source give for CCOC=C(C=O)c1ccc(Br)cc1 here?
**A.** 152 to 156 °C

**Q.** Which melting point does the source give for CN1CCN(C2=C3N=c4cc(Cl)ccc4=C3Oc3ccccc3N2C)CC1 here?
**A.** 187 to 188 °C

**Q.** With N#CC(=Cc1cc(O)c(O)c([N+](=O)[O-])c1)C(N)=O as the compound, how does the melting point read?
**A.** 296 to 298 °C

**Q.** Which melting point does the source give for C[C@H](COS(C)(=O)=O)N1C(=O)c2ccccc2C1=O here?
**A.** 75 to 77 °C

**Q.** With C#Cc1cccc(Nc2ncnc3ccc(-c4ccccc4C(=O)OCC)cc23)c1 as the compound, how does the melting point read?
**A.** 174 to 177 °C

**Q.** For COc1cccc2c1C(=O)c1c(cc3c(c1O)CCC(C(C)=O)C3)C2=O (configuration not stated), which melting point is on record?
**A.** 222 to 225 °C

**Q.** With N#CCc1cn(-c2ccccc2)nc1OCc1ccccc1 as the compound, how does the melting point read?
**A.** 102 to 103 °C

**Q.** With CC(CCN1C(=O)c2ccccc2C1=O)Cc1ccc(C(=O)CCC(=O)O)cc1 (configuration not stated) as the compound, how does the melting point read?
**A.** 142 to 143 °C

**Q.** For O=CNc1c(-c2ccccc2)sc2ccccc12, which melting point is on record?
**A.** 78 to 79 °C

**Q.** With COC(=O)c1c(-c2ccc(C)cc2)ccc2ccccc12 as the compound, how does the melting point read?
**A.** 109 to 111 °C

**Q.** Which melting point does the source give for COC(=O)CCNCC1CC2c3cccc4[nH]cc(c34)CC2N(C)C1 (configuration not stated) here?
**A.** 130 to 132 °C

**Q.** Which melting point does the source give for c1csc(-c2nc(COc3ccc(CCCCn4ccnc4)cc3)cs2)c1 here?
**A.** 108 to 109 °C

**Q.** With C[C@@H](NC(=O)c1c[nH]c2ncc(-c3nn(C)c4ccsc34)nc12)C(=O)N1CC(C#N)C1 as the compound, how does the melting point read?
**A.** 310 to 320 °C

**Q.** For Cc1cccc2ncc(C(=O)Nc3ccccc3)c(=O)n12, which melting point is on record?
**A.** 186 to 188 °C

**Q.** For COc1cc(N[C@H]2CC[C@H](NCc3ccccc3)CC2)c(Cl)cc1C(N)=O, which melting point is on record?
**A.** 204 to 206 °C

**Q.** With COc1ccc(C(=O)OC2C(O)C=C(C)C(=O)CC2(C)C)cc1OC (configuration not stated) as the compound, how does the melting point read?
**A.** 150 to 152 °C

**Q.** For O=C1NC(=O)c2c1c(-c1ccccc1Cl)cc1c2c2cc(O)ccc2n1CCCc1nnn[nH]1, which melting point is on record?
**A.** 269 to 272 °C

**Q.** Which melting point does the source give for CC(C)(C)n1c(=O)c(=O)[nH]c2ccccc21 here?
**A.** > 300 °C

**Q.** With NC(=NO)c1ccno1 as the compound, how does the melting point read?
**A.** 146 to 148 °C

**Q.** For COC(=O)C1c2ccccc2C(=O)N(CC(F)(F)F)C1c1cn[nH]c1 (configuration not stated), which melting point is on record?
**A.** 161 to 162 °C

**Q.** Which melting point does the source give for O=C(O)c1ccc(-c2nnc(-c3ccccc3[N+](=O)[O-])o2)cc1 here?
**A.** 239 to 240 °C

**Q.** For CCc1cc(C(=O)c2ccccc2Cl)c(-n2c(C)nnc2CNC(=O)/C=C/c2ccccc2N)s1, which melting point is on record?
**A.** 141 to 143 °C

**Q.** For CC(C)CN(CC(=O)O)S(=O)(=O)c1ccc(N2CCC(c3ccccc3)CC2)cc1, which melting point is on record?
**A.** 140 to 143 °C

**Q.** For CCC(C)(C)NCCC(C(=O)O)C(=O)c1ccc(Cl)cc1Cl (configuration not stated), which melting point is on record?
**A.** 124 to 126 °C

**Q.** Which melting point does the source give for C=CCOc1cc2c(cc1C(C)=O)CCCC2 here?
**A.** 62 to 63 °C

**Q.** With COc1ccc(C2C(C#N)=C(N)Oc3c2ccc2cccnc32)cc1OC (configuration not stated) as the compound, how does the melting point read?
**A.** 118 to 120 °C

**Q.** With COC(=O)[C@H](O[Si](C)(C)C)[C@@H](O[Si](C)(C)C)C(=O)OC as the compound, how does the melting point read?
**A.** 75 °C

**Q.** For CCNC(=O)C(c1ccccc1)c1ccccc1, which melting point is on record?
**A.** 87 °C

**Q.** With O=C(Nc1ccccc1C(c1ccc(O)cc1)c1ccc(O)cc1)c1cccs1 as the compound, how does the melting point read?
**A.** 240 to 243 °C

**Q.** With CCOC(=O)Cn1c2c([nH]c(=O)c1=O)CCC1=C2C=C([N+](=O)[O-])CC1 as the compound, how does the melting point read?
**A.** 217 to 219 °C

**Q.** Which melting point does the source give for CC(Nc1ccc(Cl)c(Cl)c1)C(=O)O (configuration not stated) here?
**A.** 148 to 149 °C

**Q.** With CC(=O)Nc1cc(/C=C/C(=O)NCC(=O)N(C)c2ccc(Cl)c(COc3cccc4ccc(C)nc34)c2Cl)ccn1 as the compound, how does the melting point read?
**A.** 115 to 131 °C

**Q.** Which melting point does the source give for COC(=O)Cn1c(=O)[nH]c2ccc(C(=O)c3c(C)c(OC)c4ccccn34)cc2c1=O here?
**A.** 253 °C

**Q.** Which melting point does the source give for OCc1c(Cl)cc(Cl)cc1Br here?
**A.** 111 to 112 °C

**Q.** Which melting point does the source give for Cc1csc2ncc(CO)n12 here?
**A.** 161 to 162 °C

**Q.** Which melting point does the source give for CCOC(=O)CCCNc1cccc(Br)c1 here?
**A.** 65 °C

**Q.** With COCCN1C(=O)CCCc2c1ccc(Nc1ncc(Cl)c(Nc3ccc(N4CCOCC4)cc3OC)n1)c2OC as the compound, how does the melting point read?
**A.** 136 to 138 °C

**Q.** With COC(=O)c1ccc(NC(=O)C(F)(F)F)c(C(=O)OC)c1 as the compound, how does the melting point read?
**A.** 239 °C

**Q.** With O=C(O)c1cnc2c3cccc([N+](=O)[O-])c3ccn2c1=O as the compound, how does the melting point read?
**A.** > 300 °C

**Q.** Which melting point does the source give for CC(=O)c1ccc(S(=O)(=O)Nc2ccon2)cc1 here?
**A.** 165 to 166 °C

**Q.** Which melting point does the source give for CCOC(=O)COc1coc(CCl)cc1=O here?
**A.** 98 to 100 °C

**Q.** With CN1CC=C(c2cc3ccccc3c(=O)[nH]2)CC1 as the compound, how does the melting point read?
**A.** 222 to 223 °C

**Q.** With NCC1CN(c2c(F)cc3c(=O)c(C(=O)O)cn(-c4nc(N)c(F)cc4F)c3c2Cl)C1 as the compound, how does the melting point read?
**A.** 249 to 254 °C

**Q.** Which melting point does the source give for O=C(Nc1ncnc2c1ncn2C1OC(CO)C(O)C1O)c1ccccc1 (configuration not stated) here?
**A.** 151 to 153 °C

**Q.** For O=c1[nH]c(=O)c2cc3occoc3cc12, which melting point is on record?
**A.** 277 to 280 °C
